The target of this assay is T1, Endothelin-1 receptor (Homo sapiens, UniProt P25101).
T1 sequence (P25101 whole entry): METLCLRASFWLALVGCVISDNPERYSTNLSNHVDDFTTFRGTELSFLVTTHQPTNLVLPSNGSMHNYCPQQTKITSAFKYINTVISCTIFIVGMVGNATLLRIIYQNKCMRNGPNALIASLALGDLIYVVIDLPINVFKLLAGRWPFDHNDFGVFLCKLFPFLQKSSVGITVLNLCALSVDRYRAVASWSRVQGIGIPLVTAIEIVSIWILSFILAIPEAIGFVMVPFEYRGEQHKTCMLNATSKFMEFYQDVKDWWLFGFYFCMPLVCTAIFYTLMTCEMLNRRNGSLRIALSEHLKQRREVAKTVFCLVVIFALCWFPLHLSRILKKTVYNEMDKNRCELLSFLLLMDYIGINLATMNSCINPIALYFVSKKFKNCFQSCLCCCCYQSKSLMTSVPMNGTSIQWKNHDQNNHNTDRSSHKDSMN
In words: Potency at Endothelin A receptor was determined.

Turning to `COc1cc2c(-c3ccc4c(c3)OCO4)c(C(=O)O)n(Cc3ccc4c(c3)OCO4)c2cc1OC`, the IC50 (as a rule, the concentration at which inhibition is half-maximal) came to 0.15 µM. In other words, the sub-micromolar range.
On to `CCCOc1ccc2c(c1)c(-c1ccc3c(c1)OCO3)c(C(=O)O)n2Cc1ccc2c(c1)OCO2`, for which 0.25 µM corresponded to half-maximal inhibition (IC50).
The compound `CCCOc1ccc2c(c1)c(-c1ccc3c(c1)OCO3)c(C(=O)O)n2Cc1ccc2nonc2c1` came in with an IC50 of 2.5 µM. Compared with the last compound, the IC50 is about 10-fold higher.
With `COc1cc2c(-c3ccc4c(c3)OCO4)c(C(=O)O)n(Cc3ccc4nsnc4c3)c2cc1OC`, the IC50 was 0.033 µM. This IC50 lies about 76-fold lower than the previous one.
Take `CCCOc1ccc2c(c1)c(-c1ccc3c(c1)OCO3)c(C(=O)O)n2Cc1ccc2nsnc2c1`: half-maximal inhibition (IC50) was put at 0.097 µM. This IC50 lies about 2.9-fold higher than the previous one.
